Data on 4 compounds can be found in BindingDB's records for patent US20240270732 (Chengdu Biobel Biotechnology Co., 2024).

Structures are written as SMILES.

The target in this assay is T1, Receptor-interacting serine/threonine-protein kinase 1 (Homo sapiens, UniProt Q13546).
T1 sequence (Q13546 whole entry): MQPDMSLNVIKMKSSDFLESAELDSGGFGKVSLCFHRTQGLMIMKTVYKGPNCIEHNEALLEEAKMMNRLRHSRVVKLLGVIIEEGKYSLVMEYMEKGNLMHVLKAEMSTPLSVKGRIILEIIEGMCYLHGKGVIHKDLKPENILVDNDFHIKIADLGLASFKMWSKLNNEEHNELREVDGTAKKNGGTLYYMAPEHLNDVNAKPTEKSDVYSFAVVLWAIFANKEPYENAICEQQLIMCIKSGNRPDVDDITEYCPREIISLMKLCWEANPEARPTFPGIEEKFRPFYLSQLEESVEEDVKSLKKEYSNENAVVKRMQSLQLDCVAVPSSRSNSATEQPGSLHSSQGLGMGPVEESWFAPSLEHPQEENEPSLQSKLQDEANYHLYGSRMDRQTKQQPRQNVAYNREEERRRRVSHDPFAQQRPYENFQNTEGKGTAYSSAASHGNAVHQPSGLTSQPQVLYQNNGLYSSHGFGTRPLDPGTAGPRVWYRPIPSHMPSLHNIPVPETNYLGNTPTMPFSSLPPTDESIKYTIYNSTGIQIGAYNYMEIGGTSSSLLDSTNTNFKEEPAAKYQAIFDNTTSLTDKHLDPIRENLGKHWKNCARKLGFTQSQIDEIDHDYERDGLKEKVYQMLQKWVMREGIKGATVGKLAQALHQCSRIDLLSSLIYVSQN
Nature of the assay: Inhibitory Activity Assay. The essentials: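 Compounds were titrated 22-point, 1:1.5 from 2 μM top concentration, in 50 mM Hepes pH 7.5, 50 mM NaCl, 30 mM MgCl2, 1 mM DTT, 0.02% CHAPS, 0.5 mg/mL BSA. After the kinase reaction, ADP-Glo reagent was added for 1 h at room temperature, then detection solution for 30 min, and luminescence was read.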
Consider `C[C@H]1Oc2ccc(C#CCN3CCN(CC#Cc4ccc5c(c4)N(C)C(=O)[C@@H](NC(=O)c4nnc(Cc6ccccc6)o4)[C@@H](C)O5)CC3)cc2N(C)C(=O)[C@H]1NC(=O)c1nnc(Cc2ccccc2)o1` [US20240270732, Compound I-50], for which the IC50 (usually the point on the concentration scale where inhibition reaches its midpoint) turned out to be 14.3 nM. This counts as double-digit nanomolar.
The result for `C[C@H]1Oc2ccc(C#CCCO)cc2N(C)C(=O)[C@H]1NC(=O)c1ncn(Cc2ccccc2)n1` [US20240270732, Compound I-106] reads 6.53 nM; that for `C[C@H]1Oc2ccc(C#CCN3CCN(CC#Cc4ccc5c(c4)N(C)C(=O)[C@@H](NC(=O)c4cc(Cc6ccccc6)on4)[C@@H](C)O5)CC3)cc2N(C)C(=O)[C@H]1NC(=O)c1cc(Cc2ccccc2)on1` [US20240270732, Compound I-46], 10.8 nM; that for `C[C@H]1Oc2ccc(C#CCN3CCN(CC#Cc4ccc5c(c4)N(C)C(=O)[C@@H](NC(=O)c4nnn(Cc6ccccc6)n4)CO5)CC3)cc2N(C)C(=O)[C@H]1NC(=O)c1ncn(Cc2ccccc2)n1` [US20240270732, Compound I-26], 3.73 nM.
